{"source": "patent US9149038B2", "about": "“4-amino-6-(heterocyclic)picolinates and 6-amino-2-(heterocyclic)pyrimidine-4-carboxylates and their use as herbicides” (Dow AgroSciences LLC, priority 2013, dated 2015)", "key": {"[1]": {"test_system": "Key Broadleaf Weed and Crop Species", "experiment": "Post-Emergent Test II: postemergent herbicidal activity, visual rating after 14 d (Table 7)", "assay_type": "in vivo", "details": "post-emergence, 336 h; for pest or weed control at 35 g/ha: 35 g ai/ha; for pest or weed control at 70 g/ha: 70 g ai/ha; for pest or weed control at 140 g/ha: 140 g ai/ha", "method_in_brief": "(§1)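 Track-sprayed young seedlings (first/second true leaf) at 187 L/ha across a 2-fold rate series from the high rate down to 1/16×. Kept in greenhouse at 23-29° C day, subirrigated. Injury rated by eye after 14 d, 0 = no injury, 100 = complete kill.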"}, "[2]": {"test_system": "Key Grass and Sedge Weeds as well as Grass Crops", "experiment": "Post-Emergent Test II: postemergent herbicidal activity, visual rating after 14 d (Table 8)", "assay_type": "in vivo", "details": "post-emergence, 336 h; for pest or weed control at 35 g/ha: 35 g ai/ha; for pest or weed control at 70 g/ha: 70 g ai/ha; for pest or weed control at 140 g/ha: 140 g ai/ha", "method_in_brief": "as §1"}, "[3]": {"details": "lambsquarters (Chenopodium album), read-out: Visual Growth Reduction (%) 14 Days After Application CHEAL"}, "[4]": {"details": "oilseed rape, canola (Brassica napus), read-out: Visual Growth Reduction (%) 14 Days After Application BRSNN"}, "[5]": {"details": "redroot pigweed (Amaranthus retroflexus), read-out: Visual Growth Reduction (%) 14 Days After Application AMARE"}, "[6]": {"details": "sunflower (Helianthus annuus), read-out: Visual Growth Reduction (%) 14 Days After Application HELAN"}, "[7]": {"details": "velvetleaf (Abutilon theophrasti), read-out: Visual Growth Reduction (%) 14 Days After Application ABUTH"}, "[8]": {"details": "wild poinsettia (Euphorbia heterophylla), read-out: Visual Growth Reduction (%) 14 Days After Application EPHHL"}, "[9]": {"details": "barnyardgrass (Echinochloa crus-galli), read-out: Visual Growth Reduction (%) 14 Days After Application ECHCG"}, "[10]": {"details": "giant foxtail (Setaria faberi), read-out: Visual Growth Reduction (%) 14 Days After Application SETFA"}, "[11]": {"details": "maize, corn (Zea mays), read-out: Visual Growth Reduction (%) 14 Days After Application ZEAMX"}, "[12]": {"details": "rice (Oryza sativa), read-out: Visual Growth Reduction (%) 14 Days After Application ORYSA"}, "[13]": {"details": "wheat, spring (Triticum aestivum), read-out: Visual Growth Reduction (%) 14 Days After Application TRZAS"}, "[14]": {"details": "yellow nutsedge (Cyperus esculentus), read-out: Visual Growth Reduction (%) 14 Days After Application CYPES"}}, "note": "Like-named read-outs stand apart in the source and are kept apart here.", "data": [{"molecule": "Nc1c(F)c(-c2cc(F)c3c(c2)OC(F)(F)O3)nc(C(=O)O)c1Cl", "note": "[Compound 18]", "values": [{"measurement": "pest or weed control at 35 g/ha", "setting": "[1]; [3]", "result": "0 to 29", "unit": "%"}, {"measurement": "pest or weed control at 70 g/ha", "setting": "[1]; [3]", "result": "0 to 29", "unit": "%"}, {"measurement": "pest or weed control at 140 g/ha", "setting": "[1]; [3]", "result": "0 to 29", "unit": "%"}, {"measurement": "pest or weed control at 35 g/ha", "setting": "[1]; [4]", "result": "0 to 29", "unit": "%"}, {"measurement": "pest or weed control at 70 g/ha", "setting": "[1]; [4]", "result": "0 to 29", "unit": "%"}, {"measurement": "pest or weed control at 140 g/ha", "setting": "[1]; [4]", "result": "0 to 29", "unit": "%"}, {"measurement": "pest or weed control at 35 g/ha", "setting": "[1]; [5]", "result": "0 to 29", "unit": "%"}, {"measurement": "pest or weed control at 70 g/ha", "setting": "[1]; [5]", "result": "0 to 29", "unit": "%"}, {"measurement": "pest or weed control at 140 g/ha", "setting": "[1]; [5]", "result": "0 to 29", "unit": "%"}, {"measurement": "pest or weed control at 35 g/ha", "setting": "[1]; [6]", "result": "0 to 29", "unit": "%"}, {"measurement": "pest or weed control at 70 g/ha", "setting": "[1]; [6]", "result": "0 to 29", "unit": "%"}, {"measurement": "pest or weed control at 140 g/ha", "setting": "[1]; [6]", "result": "45 to 59", "unit": "%"}, {"measurement": "pest or weed control at 35 g/ha", "setting": "[1]; [7]", "result": "0 to 29", "unit": "%"}, {"measurement": "pest or weed control at 70 g/ha", "setting": "[1]; [7]", "result": "0 to 29", "unit": "%"}, {"measurement": "pest or weed control at 140 g/ha", "setting": "[1]; [7]", "result": "0 to 29", "unit": "%"}, {"measurement": "pest or weed control at 35 g/ha", "setting": "[1]; [8]", "result": "0 to 29", "unit": "%"}, {"measurement": "pest or weed control at 70 g/ha", "setting": "[1]; [8]", "result": "0 to 29", "unit": "%"}, {"measurement": "pest or weed control at 140 g/ha", "setting": "[1]; [8]", "result": "0 to 29", "unit": "%"}, {"measurement": "pest or weed control at 35 g/ha", "setting": "[2]; [9]", "result": "45 to 59", "unit": "%"}, {"measurement": "pest or weed control at 70 g/ha", "setting": "[2]; [9]", "result": "60 to 74", "unit": "%"}, {"measurement": "pest or weed control at 140 g/ha", "setting": "[2]; [9]", "result": "60 to 74", "unit": "%"}, {"measurement": "pest or weed control at 35 g/ha", "setting": "[2]; [10]", "result": "45 to 59", "unit": "%"}, {"measurement": "pest or weed control at 70 g/ha", "setting": "[2]; [10]", "result": "45 to 59", "unit": "%"}, {"measurement": "pest or weed control at 140 g/ha", "setting": "[2]; [10]", "result": "60 to 74", "unit": "%"}, {"measurement": "pest or weed control at 35 g/ha", "setting": "[2]; [11]", "result": "0 to 29", "unit": "%"}, {"measurement": "pest or weed control at 70 g/ha", "setting": "[2]; [11]", "result": "30 to 44", "unit": "%"}, {"measurement": "pest or weed control at 140 g/ha", "setting": "[2]; [11]", "result": "60 to 74", "unit": "%"}, {"measurement": "pest or weed control at 35 g/ha", "setting": "[2]; [12]", "result": "0 to 29", "unit": "%"}, {"measurement": "pest or weed control at 70 g/ha", "setting": "[2]; [12]", "result": "0 to 29", "unit": "%"}, {"measurement": "pest or weed control at 140 g/ha", "setting": "[2]; [12]", "result": "0 to 29", "unit": "%"}, {"measurement": "pest or weed control at 35 g/ha", "setting": "[2]; [13]", "result": "0 to 29", "unit": "%"}, {"measurement": "pest or weed control at 70 g/ha", "setting": "[2]; [13]", "result": "45 to 59", "unit": "%"}, {"measurement": "pest or weed control at 140 g/ha", "setting": "[2]; [13]", "result": "45 to 59", "unit": "%"}, {"measurement": "pest or weed control at 35 g/ha", "setting": "[2]; [14]", "result": "0 to 29", "unit": "%"}, {"measurement": "pest or weed control at 70 g/ha", "setting": "[2]; [14]", "result": "0 to 29", "unit": "%"}, {"measurement": "pest or weed control at 140 g/ha", "setting": "[2]; [14]", "result": "0 to 29", "unit": "%"}]}]}
